Reference: ChEMBL document CHEMBL1145265, “Chiral discrimination in binding of enantiomers of 2-(aminoalkoxy)-substituted 4-(2-thienyl)pyrimidines and 4,6-bis(2-thienyl)pyrimidines with duplex DNA” (Bioorg Med Chem Lett, 2005)

Tested on: Calf thymus DNA
Assay: Ratio of binding constant of S-enantiomer and R-enantiomer towards sonicated calf thymus DNA
Type: nucleic-acid assay
Details: Bos taurus

Ratio | Compound
2.2 | CC(C)C(N)COc1nc(-c2cccs2)cc(-c2cccs2)n1 (configuration not stated)
1.4 | CCC(N)COc1nc(-c2cccs2)cc(-c2cccs2)n1 (configuration not stated)
2.7 | NCCOc1nc(-c2cccs2)cc(-c2cccs2)n1
1.2 | CC(N)COc1nc(-c2cccs2)cc(-c2cccs2)n1 (configuration not stated)
1.5 | Cc1c(-c2cccs2)nc(OCC(N)C(C)C)nc1-c1cccs1 (configuration not stated)

Continued, compound first:

Compound | Ratio
Cc1c(-c2cccs2)nc(OCC2CCCN2)nc1-c1cccs1 (configuration not stated) | 1.8
CCC(N)COc1nc(-c2cccs2)c(C)c(-c2cccs2)n1 (configuration not stated) | 1.6
Cc1c(-c2cccs2)nc(OCC(C)N)nc1-c1cccs1 (configuration not stated) | 1.5
Cc1c(-c2cccs2)nc(OCCN)nc1-c1cccs1 | 2.2
c1csc(-c2cc(-c3cccs3)nc(OCC3CCCN3)n2)c1 (configuration not stated) | 2.4
Cc1cnc(OCC2CCCN2)nc1-c1cccs1 (configuration not stated) | 1.4
Cc1cnc(OCC(N)C(C)C)nc1-c1cccs1 (configuration not stated) | 1.6
